Test results published in publication PMC7497692 (Investigational New Drugs, 2020).

Tests used:
[1] = Protein binding and blood cell affinity of M506; assay type: in vitro ADME
[2] = Metabolite profiling and identification in plasma, urine and feces (part A); assay type: in vivo, human healthy male volunteers; details: male, human, in vivo; for half-life: apparent t½ of metabolite in plasma; for tmax: tmax of metabolite in plasma
Procedure: Participants were hospitalized from day 1 to day 16 of the study, and further assessed on days 19, 22, and 25 (trial end). […] Pre-dose feces and urine samples were collected on day 1 and day 2, respectively. Urine was collected at 4- to 12-h intervals on day 1 and every 24 h thereafter up to day 16. Feces were collected every 24 h up to day 16. Provision was made to collect further samples up to day 39 if >1% of the administered dose was detectable in the total (urine and feces) excreta per day on two consecutive measurements.
Metabolite profiling and structure elucidation in plasma, urine, and feces were performed at the Institute of Drug Metabolism and Pharmacokinetics, Merck KGaA, Grafing, Germany, using a radiometric UPLC method coupled to a high-resolution MS. For urine and feces, metabolites were identified in a single pooled sample per matrix and subject (urine pool of 4–120 h and feces pool of 0–192 h), that covered at least 90% of the total radioactivity of the respective matrix excreted. Intervals with low radioactivity were not used for the generation of the pooled samples to avoid dilution, and to increase the signal-to-noise ratio of the respective chromatograms.
The metabolite structure elucidation was performed using the linear trap quadrupole Orbitrap XL hybrid Fourier transform (FT) MS (Thermo Scientific, Dreieich, Germany) coupled to a Waters Acquity UPLC system. Full-scan FT spectra were acquired for measurement of the masses of molecular ions of parent and metabolites. MS^2 fragmentation spectra were acquired after high-energy collisional dissociation of the appropriate molecular ions. Allocation and confirmation of the proposed metabolites to the radioactive peaks were performed using an API4000 QTrap (AB Sciex, Darmstadt, Germany) MS with simultaneous splitting using a fraction collection system (CTC HTS PAL Fraction Collector, Axel Semrau, Sprockhövel, Germany), and offline radioactive measurement using a Topcount NXT® microplate scintillation counter (PerkinElmer, Rodgau, Germany).
The maximum plasma concentration (Cmax) and time to reach maximum concentration (tmax) were derived directly from the plasma concentration–time data. Lag time (tlag) was the time prior to the first measurable (non-zero) concentration. The area under the plasma concentration–time curve from 0 to t (last measurable concentration; AUC0–t) was calculated using a mixed log–linear trapezoidal method. Area under the plasma concentration–time curve until the last sampling time (AUCall), which corresponds to AUC0–240 h within the observation period, was used for metabolite calculations. Amounts excreted in urine, feces, and total (urine + feces) were calculated as the sum of amounts (concentration multiplied by volume) for each collection from time 0 to time t. The terminal rate constant (λz) was used to estimate the terminal half-life (t½) (ln 2/λz), and the area under the concentration–time curve from time 0 to infinity (AUC0–∞). Total body clearance (CL) and apparent body clearance (CL/f) were determined by dose/AUC0–∞, and total volume of distribution (Vz) and apparent volume of distribution (Vz/f) were calculated by dose/(AUC0–∞*λz) after IV and oral administration, respectively. Volume of distribution of the central compartment (Vc) was derived by dividing the dose by the initial drug plasma concentration after IV administration. Absolute bioavailability was calculated as F = (AUCoral/doseoral)/(AUCIV/doseIV) × 100. The ratios (%) AUCtepotinib or metabolite/AUCtotal radioactivity were calculated as a percentage of the molar AUCs.

affinity for blood cells [1]: low affinity for blood cells | protein binding [1]: highly protein-bound | half-life ([2]; median): 92 h | half-life ([2]; range): 66 to 145 h | % of AUCall of total 14C-radioactivity in plasma ([2]; po): 41% | tmax ([2]; po, median): 24 h | tmax ([2]; po, range): 24 to 60 h
Compound: CN1CCC(COc2cnc(-c3cccc(Cn4nc(-c5cccc(C#N)c5)ccc4=O)c3)nc2)CC1=O (stereo not shown) [M506]
